US10246481B2, “Bile acid derivatives and methods for synthesis and use” (City of Hope, priority 2016, dated 2019)

Experiments:
[1] = target: T1, GST-hFXR (Homo sapiens, UniProt Q96RI1); conditions: UDCA 1000, 300 or 100 μM; 6EUDCA 100, 30 or 10 μM; 15 or 25 min
T1 sequence (Q96RI1 1-486): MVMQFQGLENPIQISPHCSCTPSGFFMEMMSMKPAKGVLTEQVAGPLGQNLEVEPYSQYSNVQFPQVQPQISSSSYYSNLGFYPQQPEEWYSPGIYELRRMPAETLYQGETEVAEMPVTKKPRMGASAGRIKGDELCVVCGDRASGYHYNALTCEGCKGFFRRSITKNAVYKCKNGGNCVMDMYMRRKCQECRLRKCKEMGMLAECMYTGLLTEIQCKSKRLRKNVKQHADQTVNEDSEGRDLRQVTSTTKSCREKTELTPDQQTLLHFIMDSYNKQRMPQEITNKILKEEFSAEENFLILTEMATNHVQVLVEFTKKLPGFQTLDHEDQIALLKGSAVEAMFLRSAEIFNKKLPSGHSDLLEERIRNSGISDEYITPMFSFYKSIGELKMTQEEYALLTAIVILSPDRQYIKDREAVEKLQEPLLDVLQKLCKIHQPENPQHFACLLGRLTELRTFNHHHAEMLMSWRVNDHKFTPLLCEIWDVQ

[2] = system: FXR target gene SHP; experiment: qPCR analysis of the FXR target gene SHP in HepG2 cells; type: cell-based, human; conditions: serum starved HepG2, overnight; 100 μM UDCA, 10 μM 6EUDCA; normalized with 36b4
[3] = system: phosphorylated AKT; experiment: Western blot of AKT phosphorylation in mouse primary hepatocytes from wild-type or fxr-/- mice; conditions: serum-starved mouse primary hepatocytes, 10 min
[4] = system: pAKT S473; experiment: Western blot of AKT phosphorylation in serum-starved HepG2 cells; type: cell-based, human; conditions: 10 min
Protocol: Cell extracts were used to separate proteins by SDS-PAGE, and Western blot analysis was performed using specific antibodies against phosphorylated AKT and phosphorylated GSK3beta. […] Extracts were analyzed by Western blot using specific antibodies against pAKT S473 (left panel) or pGSK3beta (right panel).
To further investigate the dose dependence of AKT phosphorylation, we treated HepG2 cells with increasing concentrations of 6EUDCA. Serum-starved HepG2 cell extracts were prepared after incubation with different concentrations of 6EUDCA (DMSO/0 M, 1 μM, 3 μM, 10 µM or 30 µM) for 10 min. Extracts were analyzed by Western blot using specific antibodies against pAKT S473 (left panel) or pGSK3beta (right panel).

| SMILES | binding to FXR in TR-FRET assay (reduction in fluorescence signal of DY246) [1] | induction of the FXR target gene SHP (qPCR) [2] | phosphorylation of AKT in fxr-/- hepatocytes [3] | phosphorylation of AKT in wild-type hepatocytes [3] | dose dependence of AKT phosphorylation ([4]; HepG2, 1 μM, 3 μM, 10 μM or 30 μM) | induction of AKT phosphorylation ([4]; serum starved HepG2 cells) |
| --- | --- | --- | --- | --- | --- | --- |
| CC[C@H]1[C@H](O)[C@@H]2[C@H](CC[C@]3(C)[C@@H]([C@H](C)CCC(=O)O)CC[C@@H]23)[C@@]2(C)CC[C@@H](O)C[C@@H]12 [6EUDCA, 3α, 7β-Dihydroxy-6α-ethyl-5β-cholan-24-oic acid] | binds FXR with higher affinity | neither UDCA nor 6EUDCA could induce the FXR target gene SHP | not in fxr−/− hepatocytes | induced phosphorylation of AKT in wild-type hepatocytes | dose dependent | effective in inducing AKT phosphorylation |
| C[C@H](CCC(=O)O)[C@H]1CC[C@H]2[C@@H]3[C@@H](O)C[C@@H]4C[C@H](O)CC[C@]4(C)[C@H]3CC[C@]12C [UDCA, Ursodeoxycholic acid, reference compound] |  |  | not in fxr−/− hepatocytes | induced phosphorylation of AKT in wild-type hepatocytes |  |  |
